Assay results: PMC4470473 (Cancer cell, 2015)
Like-named read-outs stand apart in the source and are kept apart here.

Columns and labels:
[1] = cited from earlier work
[2] = test system: H460 or DMS53 cells expressing Bcl2 shRNA1; assay: Rescue of Bcl2-silenced cells with exogenous WT or AAAA Bcl2; assay type: cell-based, human
Single-dose MTD = assay type: in vivo
[3] = test system: mitochondria isolated from H1299 cells; assay: Cyt c release from isolated mitochondria; assay type: biochemical, human; conditions: 1μM, 30 min, 30°C
N11A Bcl2 mutant = N11A Bcl2 mutant (Homo sapiens, UniProt P10415, N11A); assay: Competitive fluorescence polarization assay; assay type: binding
Mcl-1 = Mcl-1 (Homo sapiens, UniProt Q07820); assay: Fluorescence polarization assay; assay type: binding
[4] = test system: H460 lung cancer xenografts; assay: H460 lung cancer xenografts
Bcl2 ΔBH4 = Bcl2 ΔBH4 (Homo sapiens, UniProt P10415, DEL6-31); assay: Fluorescence polarization assay; assay type: binding; conditions: BH4 domain deficient Bcl2
Bfl-1/A1 = Bfl-1/A1 (Homo sapiens, UniProt Q16548); assay: Fluorescence polarization assay; assay type: binding
[5] = Maximum tolerated dose, 12-day daily i.p. treatment; assay type: in vivo
Bcl2 ΔBH2 = assay: Fluorescence polarization assay; assay type: binding; conditions: deletion of BH2
Bcl-XL = Bcl-XL (Homo sapiens, UniProt Q07817); assay: Fluorescence polarization assay; assay type: binding
MEF cells = assay: Apoptotic effect on WT and Bax knockout MEF cells; assay type: cell-based
[6] = biological target: Purified recombinant Bcl2 protein (Homo sapiens, UniProt P10415); assay: Cell-free Bcl2 conformational change, IP with anti-Bcl2/BH3 domain antibody; assay type: biochemical; conditions: cell-free system
Plasmid pUC19 DNA = assay: Electrophoretic mobility shift assay; assay type: binding
H460 cells [7] = assay: Bcl2/IP3R interaction and Ca2+ release; assay type: cell-based, human; conditions: increasing concentrations, 24h
H460 cells [8] = assay: SRB growth assay, single agents and combination; assay type: cell-based, human
Bcl2 ΔBH1 = assay: Fluorescence polarization assay; assay type: binding; conditions: deletion of BH1
E13A Bcl2 mutant = E13A Bcl2 mutant (Homo sapiens, UniProt P10415, E13A); assay: Competitive fluorescence polarization assay; assay type: binding
Bcl2 (WT) = Bcl2 (WT) (Homo sapiens, UniProt P10415); assay: Competitive fluorescence polarization assay with fluorescent Bak peptide; assay type: binding
R12A Bcl2 mutant = R12A Bcl2 mutant (Homo sapiens, UniProt P10415, R12A); assay: Competitive fluorescence polarization assay; assay type: binding
[9] = test system: NSCLC and SCLC cell lines; assay: Cell growth; assay type: cell-based, human
purified recombinant Bax = assay: Cell-free Bax activation, IP with 6A7 Bax antibody; assay type: biochemical; conditions: for direct Bax activation: Bax without Bcl2
H460 cells [10] = assay: Autophagy; assay type: cell-based, human
K17A Bcl2 mutant = K17A Bcl2 mutant (Homo sapiens, UniProt P10415, K17A); assay: Competitive fluorescence polarization assay; assay type: binding
Bcl2 ΔBH3 = assay: Fluorescence polarization assay; assay type: binding; conditions: deletion of BH3
M16A Bcl2 mutant = M16A Bcl2 mutant (Homo sapiens, UniProt P10415, M16A); assay: Competitive fluorescence polarization assay; assay type: binding
D10A Bcl2 mutant = D10A Bcl2 mutant (Homo sapiens, UniProt P10415, D10A); assay: Competitive fluorescence polarization assay; assay type: binding
H20A Bcl2 mutant = H20A Bcl2 mutant (Homo sapiens, UniProt P10415, H20A); assay: Competitive fluorescence polarization assay; assay type: binding
[11] = test system: normal small airway epithelial cell line (SAEC); assay: Annexin-V/PI cell viability in normal cells; assay type: cell-based; conditions: 1μM, 72 hr
H1299 cells = assay: Cell survival of H1299 cells overexpressing exogenous WT or mutant Bcl2; assay type: cell-based, human
[12] = test system: H460, H157, DMS53, DMS153 and H146 cells expressing Bcl2 shRNA; assay: Apoptosis; assay type: cell-based, human; conditions: 1μM, 72 hr; Bcl2 shRNA1, shRNA2 or shRNA3
SCLC PDX = assay: Patient-derived xenograft; assay type: in vivo, Nu/Nu nude mice; conditions: 20mg/kg/d i.p., 2 weeks
[13] = biological target: D10A/N11A/R12A/E13A (AAAA) Bcl2 mutant (Homo sapiens, UniProt P10415, D10A/E13A/N11A/R12A); assay: Competitive fluorescence polarization assay; assay type: binding
D31A Bcl2 mutant = D31A Bcl2 mutant (Homo sapiens, UniProt P10415, D31A); assay: Competitive fluorescence polarization assay; assay type: binding
H460 cells [14] = assay: Bcl2 expression by Western blot after mTOR inhibition; assay type: cell-based, human; conditions: increasing concentrations, 24 hr
A549 cells = assay: as above; assay type: cell-based, human; conditions: increasing concentrations, 24 hr
Bcl2 = Bcl2 expression by IHC in tumor tissues of NSCLC patients; assay type: in vivo, human; conditions: 5 or 10mg/day orally, 28 days, 10 NSCLC patients
[15] = exogenous AAAA Bcl2 mutant, 72 hr
[16] = 10, 20, 30mg/kg/d i.p., 14 days

Sequence of Mcl-1 (Q07820 whole entry, species assumed): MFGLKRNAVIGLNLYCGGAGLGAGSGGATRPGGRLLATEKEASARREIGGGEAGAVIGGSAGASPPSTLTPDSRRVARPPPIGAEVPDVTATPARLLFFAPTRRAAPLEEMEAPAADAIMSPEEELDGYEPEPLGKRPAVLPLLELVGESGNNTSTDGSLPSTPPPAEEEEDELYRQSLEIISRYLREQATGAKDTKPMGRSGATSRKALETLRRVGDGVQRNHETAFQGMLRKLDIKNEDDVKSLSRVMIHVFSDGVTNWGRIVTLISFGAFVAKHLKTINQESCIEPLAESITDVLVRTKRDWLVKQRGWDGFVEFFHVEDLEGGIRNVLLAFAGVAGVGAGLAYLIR
Sequence of Bfl-1/A1 (Q16548 whole entry): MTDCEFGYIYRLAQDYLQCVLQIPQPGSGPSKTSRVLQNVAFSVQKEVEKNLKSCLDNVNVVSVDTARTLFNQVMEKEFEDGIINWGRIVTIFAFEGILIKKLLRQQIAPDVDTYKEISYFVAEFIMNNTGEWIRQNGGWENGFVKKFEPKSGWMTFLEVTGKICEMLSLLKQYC
Sequence of Bcl-XL (Q07817 whole entry, species assumed): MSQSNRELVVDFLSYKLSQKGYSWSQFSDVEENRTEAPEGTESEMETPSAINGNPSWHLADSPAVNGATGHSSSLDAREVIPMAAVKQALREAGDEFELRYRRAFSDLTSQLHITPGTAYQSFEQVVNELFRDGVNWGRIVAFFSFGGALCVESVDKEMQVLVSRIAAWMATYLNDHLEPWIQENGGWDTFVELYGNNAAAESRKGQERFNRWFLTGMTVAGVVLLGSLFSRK

In the case of `CC1(C)CCC(CN2CCN(c3ccc(C(=O)NS(=O)(=O)c4ccc(NCC5CCOCC5)c([N+](=O)[O-])c4)c(Oc4cnc5[nH]ccc5c4)c3)CC2)=C(c2ccc(Cl)cc2)C1` [ABT-199, reference compound], the thrombocytopenia ([1]; in vivo, ref Souers et al., 2013) is listed as “did not cause thrombocytopenia”, the sensitivity of cells [2, 15] is listed as “restored the sensitivity” and the sensitivity of cells ([2]; exogenous WT Bcl2, 72 hr) is listed as “restored sensitivity”.
In the case of `CC1(C)CCC(c2ccc(Cl)cc2)=C(CN2CCN(c3ccc(C(=O)NS(=O)(=O)c4ccc(N[C@H](CCN5CCOCC5)CSc5ccccc5)c(S(=O)(=O)C(F)(F)F)c4)cc3)CC2)C1` [ABT-263], the thrombocytopenia ([1]; ref Schoenwaelder et al., 2011) is given as “can induce thrombocytopenia”.
For `CN(C)CC[C@H](CSc1ccccc1)Nc1ccc(S(=O)(=O)NC(=O)c2ccc(N3CCN(Cc4ccccc4-c4ccc(Cl)cc4)CC3)cc2)cc1[N+](=O)[O-]` [ABT-737], the thrombocytopenia ([1]; ref Schoenwaelder et al., 2011) is listed as “can induce thrombocytopenia”.
In the case of `CCN(CC)C[C@@H](O)CNc1ccc(NC[C@H]2CO2)c2c1C(=O)c1ccccc1C2=O` [BDA-366], the “maximum therapeutic dose for continuous treatment” value (Single-dose MTD; 10% of single dose MTD) is reported as 30~40 mg/kg, the “single dose MTD” value (Single-dose MTD; mouse, in vivo) is reported as 300 to 400 mg/kg and the toxicity (Single-dose MTD; single dose 300mg/kg i.p.) is reported as “did not cause weight loss or other toxicities”. The “ALT and AST” value (Single-dose MTD; single dose 400mg/kg) was “significantly enhanced”, the “pathological analysis of organs” value (Single-dose MTD; single dose 400mg/kg) was “microsteatosis in the liver and atrophic white pulp in the spleen” and the time to death (Single-dose MTD; single dose 400mg/kg) was 4 days. For the same molecule, the Cyt c release ([3]; WT Bcl2 mitochondria) was “induced Cyt c release”, the Cyt c release ([3]; ΔBH3 and vector-only control mitochondria) was “not from ΔBH3 and vector-only control cells” and the Ki (N11A Bcl2 mutant) was 4.1 ± 0.67 nM. The binding (Mcl-1) was “did not bind”, the body weight ([4]; 30mg/kg) was “Slight weight loss” and the “apoptosis in tumor tissues (active caspase 3, TUNEL)” value [4, 16] was “dose-dependent apoptosis induction”. The tumor growth [4, 16] was “dose-dependent repression”, the “histopathology of normal tissues” value ([4]; 10–30mg/kg/d) was “no evidence of normal tissue toxicities” and the “Bcl2 BH3 domain exposure in tumor tissues (QD-IHF)” value ([4]; 14 days) was “dose-dependent exposure of the Bcl2 BH3 domain”. For the same molecule, the “active Bax (6A7) in tumor tissues (QD-IHF)” value ([4]; 14 days) was “increased level of 6A7 binding to Bax”, the “kidney (BUN) and liver (ALT and AST) function” value ([4]; up to 30mg/kg/d, 14 days) was “in the normal range” and the “neutrophils, lymphocytes, RBC and platelets in blood” value ([4]; up to 30mg/kg/d, 14 days) was “no decreases”. For the same molecule, the binding (Bcl2 ΔBH4) was “failed to bind”, the binding (Bfl-1/A1) was “did not bind” and the “time to death (uniformly lethal)” value ([5]; 40mg/kg/d i.p.) was no more than 8 days. The “time to death (uniformly lethal)” value ([5]; 50mg/kg/d i.p.) was “up to 12 days”, the lethality ([5]; 10 to 30mg/kg/d i.p., up to 12 days) was “no death” and the “effect of domain deletion on binding” value (Bcl2 ΔBH2) was “did not significantly affect”. For the same molecule, the binding (Bcl-XL) was “did not bind”, the “sensitivity of Bax deficient vs WT MEF cells” value (MEF cells) was “significantly resistant” and the “Bcl2 conformational change (BH3 domain exposure)” value (shortened to “Bcl2 conformational change”) [6] was “enhanced the ability of the Bcl2/BH3 domain-specific antibody to bind Bcl2”. For the same molecule, the “DNA binding (mobility shift)” value (Plasmid pUC19 DNA) was “but not BDA-366 can bind to pUC19 DNA”, the Bcl2/IP3R binding (H460 cells [7]) was “reduced Bcl2/IP3R binding” and the “Ca2+ release” value (H460 cells [7]) was “increased Ca^2+ release”. The cell growth inhibition (H460 cells [8]; 100nM) was “partially inhibited”, the “effect of domain deletion on binding” value (Bcl2 ΔBH1) was “did not significantly affect” and the Ki (E13A Bcl2 mutant) was 4.5 ± 0.71 nM. For the same molecule, the Ki (Bcl2 (WT)) was 3.3 ± 0.73 nM, the Ki (R12A Bcl2 mutant) was 4.3 ± 0.54 nM and the “sensitivity of cell lines” value ([9]; higher Bcl2: H157, Calu-1, H358, H460, H1975, DMS53, DMS153, H146, H69) was “more sensitive”. The “sensitivity of cell lines” value ([9]; lower or undetectable Bcl2: A549, H1299, DMS114, H128) was “less sensitive”, the “direct Bax activation” value (purified recombinant Bax) was “is not a direct Bax activator” and the “Bcl2-dependent Bax activation” value (purified recombinant Bax; Bcl2 pre-treated with compound 1 hr, then Bax 2 hr) was “enhanced the ability of Bax to bind to 6A7 antibody”. For the same molecule, the LC3-II levels (H460 cells [10]; 1 μM, 24h) was “Increased levels of LC3-II”, the “percentage of GFP-LC3vac cells” value (H460 cells [10]; vs DMSO control) was “significantly increases” and the Ki (K17A Bcl2 mutant) was 4.2 ± 0.45 nM. For the same molecule, the “effect of domain deletion on binding” value (Bcl2 ΔBH3) was “did not significantly affect”, the Ki (M16A Bcl2 mutant) was 3.9 ± 0.31 nM and the Ki (D10A Bcl2 mutant) was 4.8 ± 0.41 nM. For the same molecule, the Ki (H20A Bcl2 mutant) was 3.8 ± 0.47 nM, the “sensitivity of normal cells” value [11] was “less sensitive” and the cell survival (H1299 cells; compound Bcl2 AAAA mutant) was “significantly prolonged cell survival”. The sensitivity of cells (H1299 cells; exogenous WT or single site Bcl2 mutants) was “enhanced sensitivity”, the “sensitivity after depletion of endogenous Bcl2” value [12] was “significantly reduced sensitivity” and the tumor growth (SCLC PDX) was “potently suppressed the growth”. The Ki [13] was 598.64 ± 0.12 nM, the sensitivity of cells [2, 15] was “not to BDA-366” and the sensitivity of cells ([2]; exogenous WT Bcl2, 72 hr) was “restored sensitivity”. For the same molecule, the Ki (D31A Bcl2 mutant) was 3.7 ± 0.91 nM.
In the case of `CO[C@H]1C[C@@H]2CC[C@@H](C)[C@@](O)(O2)C(=O)C(=O)N2CCCC[C@H]2C(=O)O[C@H]([C@H](C)C[C@@H]2CC[C@@H](OCCO)[C@H](OC)C2)CC(=O)[C@H](C)/C=C(\C)[C@@H](O)[C@@H](OC)C(=O)[C@H](C)C[C@H](C)/C=C/C=C/C=C/1C` [RAD001, everolimus], the Bcl2 expression (H460 cells [14]) is reported as “up-regulation of Bcl2 in a dose-dependent manner”, the “apoptosis in tumor tissues” value ([4]; 1mg/kg/d, 14 days, alone) is reported as “did not cause significant apoptosis” and the Bcl2 expression (A549 cells) is reported as “up-regulation of Bcl2 in a dose-dependent manner”. The cell growth inhibition (H460 cells [8]; 1nM) was “partially inhibited” and the “Bcl2 expression in post-treatment vs baseline tumor tissues” value (Bcl2) was “increased expression of Bcl2”.
With `COc1cc([C@@H]2c3cc4c(cc3[C@@H](O[C@@H]3O[C@@H]5CO[C@@H](C)O[C@H]5[C@H](O)[C@H]3O)[C@H]3COC(=O)[C@H]23)OCO4)cc(OC)c1O` [VP-16] the “Bcl2 conformational change” value [6] was “not a chemotherapeutic agent (i.e. VP-16 or cisplatin) can directly induce Bcl2 conformational change”.
With `N.N.[Cl][Pt][Cl]` [cisplatin, reference compound] the “Bcl2 conformational change” value [6] was “not a chemotherapeutic agent (i.e. VP-16 or cisplatin) can directly induce Bcl2 conformational change” and the “DNA binding (mobility shift)” value (Plasmid pUC19 DNA) was “can bind to pUC19 DNA”.
For BAM7 [reference compound], the “direct Bax activation” value (purified recombinant Bax) was “can directly activate Bax”.
